≈ marks a conversion by molar mass, not a printed value.
Key:
Assay type in all cases: cell-based
[1] = tested on: Staphylococcus aureus MS 353; assay: Antibacterial activity, agar-dilution MIC, organism No. 3; conditions: Staphylococcus aureus, MS353; Organism No. 3, bouillon-agar; read-out: Minimum Inhibitory Concentration
Text: (§1) Agar-dilution method was used for determination of the antibacterial activity and antifungal activity while using bouillon-agar culture medium, and the minimum inhibitory concentration of the specimen was expressed by μg/ml of the culture medium.

[2] = tested on: Enterobacter aerogenes ATCC 13048; assay: Antibacterial activity, agar-dilution MIC, organism No. 23; conditions: Klebsiella aerogenes, ATCC13048; Organism No. 23, bouillon-agar; read-out: Minimum Inhibitory Concentration
Text: as §1

[3] = tested on: Bacillus subtilis ATCC 6633; assay: Antibacterial activity, agar-dilution MIC, organism No. 14; conditions: Bacillus subtilis, ATCC6633; Organism No. 14, bouillon-agar; read-out: Minimum Inhibitory Concentration
Text: as §1

[4] = tested on: Staphylococcus aureus Terajima; assay: Antibacterial activity, agar-dilution MIC, organism No. 2; conditions: Staphylococcus aureus; Organism No. 2, bouillon-agar; read-out: Minimum Inhibitory Concentration
Text: as §1

[5] = tested on: Escherichia coli NIHJ-JC-2; assay: Antibacterial activity, agar-dilution MIC, organism No. 5; conditions: Escherichia coli, NIHJJC2; Organism No. 5, bouillon-agar; read-out: Minimum Inhibitory Concentration
Text: as §1

[6] = tested on: Mycoplasma pneumoniae IID817; assay: Antimycoplasmal activity, MIC by phenol red colour change, organism No. 28; conditions: Mycoplasma, IID817; Organism No. 28, PPLO broth + 1% glucose, 37° C.; read-out: Minimum Inhibitory Concentration (MIC)
Experimental: Mycoplasma pneumoniae IID817 was used as the test microorganism in a culture medium prepared by adding 1% of glucose to "PPLO broth (manufactured by Difco Co.) liquid culture medium" at 37° C. with phenol red as an indicator, thereby culturing the test microorganism.

[7] = tested on: Klebsiella pneumoniae PCI-602; assay: Antibacterial activity, agar-dilution MIC, organism No. 7; conditions: Klebsiella pneumoniae, PCI602; Organism No. 7, bouillon-agar; read-out: Minimum Inhibitory Concentration
Text: as §1

[8] = tested on: Pseudomonas aeruginosa NCTC 10490; assay: Antibacterial activity, agar-dilution MIC, organism No. 16; conditions: Pseudomonas aeruginosa, NCTC10490; Organism No. 16, bouillon-agar; read-out: Minimum Inhibitory Concentration
Text: as §1

Salmonella typhi 901 = assay: Antibacterial activity, agar-dilution MIC, organism No. 9; conditions: Salmonella enterica, TYPHI, read-out: Minimum Inhibitory Concentration
Text: as §1

[9] = tested on: Salmonella shottmuelleri 8006; assay: Antibacterial activity, agar-dilution MIC, organism No. 11; conditions: Salmonella, 8006; Organism No. 11, bouillon-agar; read-out: Minimum Inhibitory Concentration
Text: as §1

[10] = tested on: Salmonella enteritidis G 14; assay: Antibacterial activity, agar-dilution MIC, organism No. 12; conditions: Salmonella enterica, ENTERITIDIS; Organism No. 12, bouillon-agar; read-out: Minimum Inhibitory Concentration
Text: as §1

[11] = tested on: Candida albicans IAM 4905; assay: Antifungal activity, agar-dilution MIC, organism No. 29; conditions: Candida albicans, IAM4905; Organism No. 29, bouillon-agar; read-out: Minimum Inhibitory Concentration
Text: as §1

Proteus vulgaris OX-19 = assay: Antibacterial activity, agar-dilution MIC, organism No. 20; conditions: Proteus vulgaris, OX19; Organism No. 20, bouillon-agar; read-out: Minimum Inhibitory Concentration
Text: as §1

[12] = tested on: Proteus rettgeri IFO 3850; assay: Antibacterial activity, agar-dilution MIC, organism No. 22; conditions: Providencia rettgeri, IFO3850; Organism No. 22, bouillon-agar; read-out: Minimum Inhibitory Concentration
Text: as §1

[13] = tested on: Proteus mirabilis IFO 3849; assay: Antibacterial activity, agar-dilution MIC, organism No. 19; conditions: Proteus mirabilis, IFO3849; Organism No. 19, bouillon-agar; read-out: Minimum Inhibitory Concentration
Text: as §1

[14] = tested on: Staphylococcus aureus FDA 209PJc-1; assay: Antibacterial activity, agar-dilution MIC, organism No. 1; conditions: Staphylococcus aureus, FDA209PJC1; Organism No. 1, bouillon-agar; read-out: Minimum Inhibitory Concentration
Text: as §1

[15] = tested on: Streptococcus pyogenes Cook; assay: Antibacterial activity, agar-dilution MIC, organism No. 4; conditions: Streptococcus pyogenes; Organism No. 4, bouillon-agar; read-out: Minimum Inhibitory Concentration
Text: as §1

[16] = tested on: Micrococcus luteus ATCC 9341; assay: Antibacterial activity, agar-dilution MIC, organism No. 25; conditions: Micrococcus luteus, ATCC9341; Organism No. 25, bouillon-agar; read-out: Minimum Inhibitory Concentration
Text: as §1

[17] = tested on: Pseudomonas aeruginosa PAO 1; assay: Antibacterial activity, agar-dilution MIC, organism No. 17; conditions: Pseudomonas aeruginosa, PAO1; Organism No. 17, bouillon-agar; read-out: Minimum Inhibitory Concentration
Text: as §1

[18] = tested on: Aspergillus niger IFO 6342; assay: Antifungal activity, agar-dilution MIC, organism No. 30; conditions: Aspergillus niger, IFO6342; Organism No. 30, bouillon-agar; read-out: Minimum Inhibitory Concentration
Text: as §1

Proteus vulgaris HX-19 = assay: Antibacterial activity, agar-dilution MIC, organism No. 21; conditions: Proteus vulgaris, HX19; Organism No. 21, bouillon-agar; read-out: Minimum Inhibitory Concentration
Text: as §1

[19] = tested on: Streptococcus pyogenes IFO 3340; assay: Antibacterial activity, agar-dilution MIC, organism No. 26; conditions: Streptococcus pyogenes, IFO3340; Organism No. 26, bouillon-agar; read-out: Minimum Inhibitory Concentration
Text: as §1

[20] = tested on: Salmonella typhimurium IID 971; assay: Antibacterial activity, agar-dilution MIC, organism No. 8; conditions: Salmonella enterica; Organism No. 8, bouillon-agar; read-out: Minimum Inhibitory Concentration
Text: as §1

[21] = tested on: Escherichia coli K12 C600 IAM 1264; assay: Antibacterial activity, agar-dilution MIC, organism No. 6; conditions: Escherichia coli, IAM1264; Organism No. 6, bouillon-agar; read-out: Minimum Inhibitory Concentration
Text: as §1

Enterobacter cloacae 963 = assay: Antibacterial activity, agar-dilution MIC, organism No. 24; conditions: Enterobacter cloacae, 963; Organism No. 24, bouillon-agar; read-out: Minimum Inhibitory Concentration
Text: as §1

[22] = tested on: Pseudomonas aeruginosa IFO 3445; assay: Antibacterial activity, agar-dilution MIC, organism No. 15; conditions: Pseudomonas aeruginosa, IFO3445; Organism No. 15, bouillon-agar; read-out: Minimum Inhibitory Concentration
Text: as §1

[23] = tested on: Streptococcus faecium IFO 3826; assay: Antibacterial activity, agar-dilution MIC, organism No. 27; conditions: Enterococcus faecium, IFO3826; Organism No. 27, bouillon-agar; read-out: Minimum Inhibitory Concentration
Text: as §1

[24] = tested on: Proteus morganii IFO 3848; assay: Antibacterial activity, agar-dilution MIC, organism No. 18; conditions: Morganella morganii, IFO3848; Organism No. 18, bouillon-agar; read-out: Minimum Inhibitory Concentration
Text: as §1

[25] = tested on: Salmonella paratyphi-A 1015; assay: Antibacterial activity, agar-dilution MIC, organism No. 10; conditions: Salmonella enterica, PARATYPHI, read-out: Minimum Inhibitory Concentration
Text: as §1

SMILES | MIC [1] [µg/mL] | MIC [2] [µg/mL] | MIC [3] [µg/mL] | MIC [4] [µg/mL] | MIC [5] [µg/mL] | MIC [6] [µg/mL] | MIC [7] [µg/mL] | MIC [8] [µg/mL] | MIC (Salmonella typhi 901) [µg/mL] | MIC [9] [µg/mL] | MIC [10] [µg/mL] | MIC [11] [µg/mL] | MIC (Proteus vulgaris OX-19) [µg/mL] | MIC [12] [µg/mL] | MIC [13] [µg/mL] | MIC [14] [µg/mL] | MIC [15] [µg/mL] | MIC [16] [µg/mL] | MIC [17] [µg/mL] | MIC [18] [µg/mL] | also measured
[C-]#[N+]C12CC3(/C=C/C(=O)NCc4ccccc4)OC3C1O2 (centres unmarked) [Compound No. 24] | 0.78 (≈ 2.76 µM) | > 100 | 12.5 (≈ 44.3 µM) | 1.56 (≈ 5.53 µM) | 12.5 (≈ 44.3 µM) | < 0.2 | 1.56 (≈ 5.53 µM) | > 100 | 3.13 (≈ 11.1 µM) | 0.78 (≈ 2.76 µM) | 1.56 (≈ 5.53 µM) | 0.2 (≈ 0.708 µM) | 0.78 (≈ 2.76 µM) | 3.13 (≈ 11.1 µM) | 12.5 (≈ 44.3 µM) | 0.78 (≈ 2.76 µM) | 6.25 (≈ 22.1 µM) | < 0.05 | > 100 | 1.56 (≈ 5.53 µM) | MIC (Proteus vulgaris HX-19): < 0.05 µg/mL; MIC [19]: 6.25 µg/mL (≈ 22.1 µM); MIC [20]: 6.25 µg/mL (≈ 22.1 µM); MIC [21]: 6.25 µg/mL (≈ 22.1 µM); MIC (Enterobacter cloacae 963): > 100 µg/mL; MIC [22]: > 100 µg/mL; MIC [23]: 1.56 µg/mL (≈ 5.53 µM); MIC [24]: 1.56 µg/mL (≈ 5.53 µM); MIC [25]: 1.56 µg/mL (≈ 5.53 µM)
[C-]#[N+]C12CC3(/C=C/C(=O)N[C@@H](Cc4ccccc4)C(=O)OCc4ccccc4)OC3C1O2 (some centres unmarked) [compound 31] | > 200 | > 200 | > 200 | > 200 | > 200 | > 100 | > 200 | > 200 | > 200 | > 200 | > 200 | > 100 | > 200 | > 200 | > 200 | > 200 | > 200 | 6.25 (≈ 14.5 µM) | > 200 | > 100 | MIC (Proteus vulgaris HX-19): > 200 µg/mL; MIC [19]: > 200 µg/mL; MIC [20]: > 200 µg/mL; MIC [21]: > 200 µg/mL; MIC (Enterobacter cloacae 963): > 200 µg/mL; MIC [22]: > 200 µg/mL; MIC [23]: > 200 µg/mL; MIC [24]: > 200 µg/mL; MIC [25]: > 200 µg/mL
[C-]#[N+]C12CC3(/C=C/C(=O)NC4C(=O)N5C4SC(C)(C)C5C(=O)OCC(=O)c4ccc(Br)cc4)OC3C1O2 (centres unmarked) [Compound No. 33] | 1.56 (≈ 2.65 µM) | > 100 | 0.78 (≈ 1.33 µM) | 0.78 (≈ 1.33 µM) | 25 (≈ 42.5 µM) | < 0.2 | 25 (≈ 42.5 µM) | > 200 | 3.13 (≈ 5.32 µM) | 0.38 (≈ 0.646 µM) | 1.56 (≈ 2.65 µM) | 1.56 (≈ 2.65 µM) | 100 (≈ 170 µM) | > 100 | > 200 | 1.56 (≈ 2.65 µM) | 0.78 (≈ 1.33 µM) | 3.13 (≈ 5.32 µM) | > 200 | 3.13 (≈ 5.32 µM) | MIC (Proteus vulgaris HX-19): 1.56 µg/mL (≈ 2.65 µM); MIC [19]: 0.8 µg/mL (≈ 1.36 µM); MIC [20]: 12.5 µg/mL (≈ 21.2 µM); MIC [21]: 25 µg/mL (≈ 42.5 µM); MIC (Enterobacter cloacae 963): 25 µg/mL (≈ 42.5 µM); MIC [22]: > 200 µg/mL; MIC [23]: 0.8 µg/mL (≈ 1.36 µM); MIC [24]: > 200 µg/mL; MIC [25]: 0.38 µg/mL (≈ 0.646 µM)
[C-]#[N+]C12CC3(/C=C/C(=O)N[C@@H](CC(=O)OC)C(=O)OC)OC3C1O2 (some centres unmarked) [Compound No. 27] | 25 (≈ 74.3 µM) | > 200 | 100 (≈ 297 µM) | 100 (≈ 297 µM) | 100 (≈ 297 µM) | > 100 | 25 (≈ 74.3 µM) | > 200 | 25 (≈ 74.3 µM) | 25 (≈ 74.3 µM) | 25 (≈ 74.3 µM) | 100 (≈ 297 µM) | 25 (≈ 74.3 µM) | > 200 | > 200 | 25 (≈ 74.3 µM) | 50 (≈ 149 µM) | 12.5 (≈ 37.2 µM) | > 200 | > 100 | MIC (Proteus vulgaris HX-19): 12.5 µg/mL (≈ 37.2 µM); MIC [19]: 50 µg/mL (≈ 149 µM); MIC [20]: 100 µg/mL (≈ 297 µM); MIC [21]: 50 µg/mL (≈ 149 µM); MIC (Enterobacter cloacae 963): > 200 µg/mL; MIC [22]: > 200 µg/mL; MIC [23]: > 200 µg/mL; MIC [24]: 25 µg/mL (≈ 74.3 µM); MIC [25]: 25 µg/mL (≈ 74.3 µM)

From patent US4684664A, “Derivatives of β-(4-isocyano-1,2,3,4-diepoxycyclopentyl) acrylic acid” (Kureha Kagaku Kogyo Kabushiki Kaisha, priority 1984, dated 1987)
